Assay results taken from patent US10905657B2, “Solid dispersions of Coenzyme Q10” (Indena S.P.A., priority 2015, dated 2021).

Test: Pharmacokinetic study in rats after single oral dose
Conditions: male, Sprague-Dawley, rat, in vivo, 50 mg/kg, intragastric gavage, single dose 50 mg Coenzyme Q10/Kg, suspended in 1% carboxymethyl cellulose, plasma
Experimental: Pharmacokinetic parameters (Tmax, Cmax, absolute bioavailability) were determined in rats after the oral administration of a single dose of Coenzyme Q10 as crystalline powder and as solid dispersion with phospholipids.
Male Sprague-Dawley rats, weighting 300-350 g were used for the pharmacokinetic experiment. Rats were fasted 16 hours before administration with free access to water.
Coenzyme Q10 as crystalline powder and as solid dispersion with phospholipids were suspended in 1% carboxymethyl cellulose water suspension and administered by intragastric gavage as a single dose of 50 mg of Coenzyme Q10/Kg.
Blood samples were collected from tail vein after 0.5-1.0-2.0-4.0-8.0-12.0 and 24 hours after administration.
Plasma was obtained from blood samples by centrifugation at 5.000×g for 15 minutes and kept frozen (−20° C.) until analysis. After protein sedimentation, Coenzyme Q10 was extracted by plasma samples with n-hexane; the extraction step with hexane was repeated for three times. The hexane phases, separated by centrifugation, were collected and the solvent was removed by evaporation under nitrogen. The residue was dissolved in 2-propanol for HPLC/MS analysis at 275 nm, using internal standard method for Coenzyme Q10 quantification.
The following pharmacokinetic parameters were calculated: […]

Which Cmax does the source give for COC1=C(OC)C(=O)C(C/C=C(\C)CC/C=C(\C)CC/C=C(\C)CC/C=C(\C)CC/C=C(\C)CC/C=C(\C)CC/C=C(\C)CC/C=C(\C)CC/C=C(\C)CCC=C(C)C)=C(C)C1=O [Crystalline Coenzyme Q10, Coenzyme Q10] here?
Its Cmax is 230 ng/mL.

What about the Tmax of the same molecule?
The Tmax was 3.8 h.

And the AUC(0-t) (0-24 hours)?
The AUC(0-t) was 4100 ng·h/mL.
